Common to all, as to assay type: in vivo
The subject of one assay is Pyricularia oryzae. Put plainly: whole plant or invertebrate. The settings on record: 24 h, read-out: PYRIOR percent control rating.
In assay [1] the test system is Puccinia recondita tritici. Put plainly: Leaf Rust of Wheat greenhouse one-day protectant test. The note with it: 24 h, wheat plants, one-day protectant test, 200 ppm application rate, read-out: PUCCRT percent control rating.
Another assay concerns Erysiphe cichoracaerum. In words: Cucumber Powdery Mildew greenhouse one-day protectant test. The settings on record: 24 h, cucumber plants, one-day protectant test, 200 ppm application rate, read-out: ERYSCI percent control rating.
In another assay the test system is Phytophthora infestans. In words: whole plant or invertebrate. The note with it: in Solanum lycopersicum, 24 h, read-out: PHYTIN percent control rating, tomato plants, one-day protectant test, 200 ppm application rate.
A further assay concerns Colletotricum lagenarium. Put plainly: Cucumber Anthracnose greenhouse one-day protectant test. The note with it: Cucumis sativus, 24 h, cucumber plants, one-day protectant test, 200 ppm application rate; read-out: COLLLA percent control rating.
The subject of a further assay is Leptosphaeria nodorum. Put plainly: Glume Blotch of Wheat greenhouse one-day protectant test. The settings on record: Parastagonospora nodorum, 24 h; wheat plants, one-day protectant test, 200 ppm application rate; read-out: LEPTNO percent control rating.

Among the data in patent US7473669B2, “Substituted 4,5-dihydro-1,2,4-triazin-6-ones, 1,2,4-triazin-6-ones, and their use as fungicides” (priority 2005, dated 2009) are pest or weed control values, retold here.

On to `O=C1CNC(c2cccc(Oc3nc4ccc(Cl)cc4s3)c2)=NN1CC(F)(F)F` [Compound 27], for which the pest or weed control at 200 ppm lay in the range of 80 to 100% in the assay on Pyricularia oryzae; 80 to 100% in assay [1]; 0 to 49% in the assay with Erysiphe cichoracaerum; 0 to 49% in the assay with Phytophthora infestans; 50 to 79% with Colletotricum lagenarium; 80 to 100% in the assay on Leptosphaeria nodorum.
In the case of `O=C1CNC(c2cccc(Oc3nnnn3-c3ccccc3)c2)=NN1CC(F)(F)F` [Compound 28], the pest or weed control at 200 ppm in the assay with Pyricularia oryzae fell in the range of 50 to 79%; in assay [1] it was 0 to 49%; in the assay with Erysiphe cichoracaerum, 0 to 49%; in the assay on Phytophthora infestans, 0 to 49%; with Colletotricum lagenarium, 0 to 49%; with Leptosphaeria nodorum, 50 to 79%.
`O=C1CNC(c2cccc(-c3ccc(Cl)s3)c2)=NN1CC(F)(F)F` [Compound 29]: the pest or weed control at 200 ppm was 50 to 79% in the assay with Pyricularia oryzae; 80 to 100% in assay [1]; 0 to 49% in the assay on Erysiphe cichoracaerum; 0 to 49% with Phytophthora infestans; 0 to 49% in the assay on Colletotricum lagenarium; 80 to 100% in the assay on Leptosphaeria nodorum.
`O=C1CNC(c2cccc(-c3ccc(Oc4ccccc4)cc3)c2)=NN1CC(F)(F)F` [Compound 30]: the pest or weed control at 200 ppm lay in the range of 0 to 49% in the assay with Pyricularia oryzae; 50 to 79% in assay [1]; 0 to 49% in the assay on Erysiphe cichoracaerum; 0 to 49% with Phytophthora infestans; 0 to 49% with Colletotricum lagenarium; 50 to 79% with Leptosphaeria nodorum.
As for `O=C1CNC(c2cccc(Oc3ncccn3)c2)=NN1CC(F)(F)F` [Compound 31], the pest or weed control at 200 ppm was 0 to 49% with Pyricularia oryzae; 0 to 49% in assay [1]; 0 to 49% in the assay with Erysiphe cichoracaerum; 0 to 49% in the assay with Phytophthora infestans; 0 to 49% in the assay on Colletotricum lagenarium; 50 to 79% in the assay on Leptosphaeria nodorum.
Consider `CNc1cc(F)nc(Oc2cccc(C3=NN(CC(F)(F)F)C(=O)CN3)c2)n1` [Compound 32], for which the pest or weed control at 200 ppm in the assay with Pyricularia oryzae lay in the range of 0 to 49%; in assay [1] it was 50 to 79%; in the assay with Erysiphe cichoracaerum it was 0 to 49%; with Phytophthora infestans, 0 to 49%; in the assay with Colletotricum lagenarium, 0 to 49%; in the assay with Leptosphaeria nodorum, 80 to 100%.
In the case of `O=C1CNC(c2cccc(Oc3ccnc(Cl)c3)c2)=NN1CC(F)(F)F` [Compound 33], the pest or weed control at 200 ppm lay within 0 to 49% in the assay with Pyricularia oryzae; 80 to 100% in assay [1]; 0 to 49% in the assay on Erysiphe cichoracaerum; 0 to 49% with Phytophthora infestans; 0 to 49% in the assay on Colletotricum lagenarium; 50 to 79% with Leptosphaeria nodorum.
Take `O=C1CNC(c2ccc(-c3cc(Cl)cc(Cl)c3)nc2)=NN1CCF` [Compound 34]: the pest or weed control at 200 ppm in the assay with Pyricularia oryzae is 80 to 100%; in assay [1] it was 80 to 100%; in the assay with Erysiphe cichoracaerum, 0 to 49%; with Phytophthora infestans, 50 to 79%; with Colletotricum lagenarium it was 50 to 79%; with Leptosphaeria nodorum, 80 to 100%.
As for `O=C1CNC(c2ccc(-c3ccc(C(F)(F)F)cc3)nc2)=NN1CCF` [Compound 35], the pest or weed control at 200 ppm in the assay on Pyricularia oryzae was in the range of 80 to 100%; in assay [1], 80 to 100%; with Erysiphe cichoracaerum it was 0 to 49%; in the assay on Phytophthora infestans, 50 to 79%; in the assay with Colletotricum lagenarium, 50 to 79%; with Leptosphaeria nodorum, 80 to 100%.
Turning to `Cc1cc(C)cc(C2=NN(CC(F)(F)F)C(=O)C(SCc3ccccc3)N2)c1` (stereo not drawn) [Compound 36], the pest or weed control at 200 ppm with Pyricularia oryzae is 80 to 100%; in assay [1], 80 to 100%; with Erysiphe cichoracaerum it was 0 to 49%; in the assay on Phytophthora infestans it was 0 to 49%; with Colletotricum lagenarium it was 80 to 100%; with Leptosphaeria nodorum, 80 to 100%.
Consider `Cc1cc(C)cc(C2=NN(CC(F)(F)F)C(=O)C(SC3CCCCC3)N2)c1` (stereo not drawn) [Compound 37], for which the pest or weed control at 200 ppm in the assay on Pyricularia oryzae is 80 to 100%; in assay [1], 80 to 100%; with Erysiphe cichoracaerum, 0 to 49%; in the assay on Phytophthora infestans, 0 to 49%; in the assay on Colletotricum lagenarium, 80 to 100%; in the assay with Leptosphaeria nodorum, 80 to 100%.
On to `Cc1cc(C)cc(C2=NN(CC(F)(F)F)C(=O)C(SCCO)N2)c1` (stereo not drawn) [Compound 38], for which the pest or weed control at 200 ppm lay within 80 to 100% with Pyricularia oryzae; 80 to 100% in assay [1]; 0 to 49% in the assay on Erysiphe cichoracaerum; 0 to 49% in the assay with Phytophthora infestans; 0 to 49% in the assay on Colletotricum lagenarium; 80 to 100% in the assay on Leptosphaeria nodorum.
For the molecule `Cc1cc(C)cc(C2=NN(CC(F)(F)F)C(=O)C(SCCCCl)N2)c1` (stereo not drawn) [Compound 39], the pest or weed control at 200 ppm in the assay with Pyricularia oryzae lay within 80 to 100%; in assay [1] it was 80 to 100%; in the assay with Erysiphe cichoracaerum it was 0 to 49%; in the assay on Phytophthora infestans it was 0 to 49%; in the assay on Colletotricum lagenarium it was 80 to 100%; with Leptosphaeria nodorum it was 80 to 100%.
With `Cc1cc(C)cc(C2=NN(CC(F)(F)F)C(=O)C(OCc3ccccc3)N2)c1` (stereo not drawn) [Compound 40], the pest or weed control at 200 ppm is 80 to 100% with Pyricularia oryzae; 80 to 100% in assay [1]; 0 to 49% in the assay with Erysiphe cichoracaerum; 0 to 49% in the assay with Phytophthora infestans; 80 to 100% with Colletotricum lagenarium; 80 to 100% in the assay with Leptosphaeria nodorum.
For the molecule `Cc1cc(C)cc(C2=NN(CC(F)(F)F)C(=O)C(OC3CCCCC3)N2)c1` (stereo not drawn) [Compound 41], the pest or weed control at 200 ppm with Pyricularia oryzae lay within 80 to 100%; in assay [1], 80 to 100%; in the assay on Erysiphe cichoracaerum, 0 to 49%; in the assay with Phytophthora infestans it was 0 to 49%; with Colletotricum lagenarium, 50 to 79%; in the assay with Leptosphaeria nodorum it was 80 to 100%.
`Cc1cc(C)cc(C2=NN(CC(F)(F)F)C(=O)C(SCC(=O)O)N2)c1` (stereo not drawn) [Compound 42]: the pest or weed control at 200 ppm was in the range of 80 to 100% with Pyricularia oryzae; 80 to 100% in assay [1]; 0 to 49% in the assay on Erysiphe cichoracaerum; 0 to 49% with Phytophthora infestans; 80 to 100% with Colletotricum lagenarium; 80 to 100% with Leptosphaeria nodorum.
On to `Cc1cc(C2=NN(CC(F)(F)F)C(=O)C(SC3CCCCC3)N2)ccc1Br` (stereo not drawn) [Compound 43], for which the pest or weed control at 200 ppm in the assay on Pyricularia oryzae was 80 to 100%; in assay [1], 80 to 100%; in the assay with Erysiphe cichoracaerum, 0 to 49%; with Phytophthora infestans, 80 to 100%; with Colletotricum lagenarium, 80 to 100%; in the assay with Leptosphaeria nodorum, 80 to 100%.
For the molecule `O=C1C(SC2CCCCC2)NC(c2cc(Br)cc(Br)c2)=NN1CC(F)(F)F` (stereo not drawn) [Compound 44], the pest or weed control at 200 ppm with Pyricularia oryzae lay within 80 to 100%; in assay [1], 80 to 100%; with Erysiphe cichoracaerum, 0 to 49%; in the assay with Phytophthora infestans, 80 to 100%; in the assay on Colletotricum lagenarium, 80 to 100%; in the assay with Leptosphaeria nodorum it was 80 to 100%.
For the molecule `O=C1C(SC2CCCCC2)NC(c2ccc(Oc3ccccc3)c(-c3ccccc3)c2)=NN1CC(F)(F)F` (stereo not drawn) [Compound 45], the pest or weed control at 200 ppm in the assay with Pyricularia oryzae is 80 to 100%; in assay [1], 50 to 79%; with Erysiphe cichoracaerum, 0 to 49%; in the assay with Phytophthora infestans it was 0 to 49%; in the assay on Colletotricum lagenarium it was 50 to 79%; with Leptosphaeria nodorum, 80 to 100%.
Regarding `O=C1C(SC2CCCCC2)NC(c2cccc(/C=C\c3ccccc3)c2)=NN1CC(F)(F)F` (stereo not drawn) [Compound 47], the pest or weed control at 200 ppm lay within 80 to 100% in the assay on Pyricularia oryzae; 80 to 100% in assay [1]; 80 to 100% in the assay on Erysiphe cichoracaerum; 0 to 49% in the assay on Phytophthora infestans; 80 to 100% with Colletotricum lagenarium; 80 to 100% with Leptosphaeria nodorum.
On to `O=C1C(SC2CCCCC2)NC(c2ccc(Br)s2)=NN1CC(F)(F)F` (stereo not drawn) [Compound 50], for which the pest or weed control at 200 ppm in the assay on Pyricularia oryzae was in the range of 80 to 100%; in assay [1], 80 to 100%; in the assay on Erysiphe cichoracaerum it was 0 to 49%; in the assay on Phytophthora infestans, 0 to 49%; in the assay on Colletotricum lagenarium, 50 to 79%; in the assay with Leptosphaeria nodorum it was 80 to 100%.
In the case of `Cc1ccccc1-c1cccc(C2=NN(CC(F)(F)F)C(=O)C(SC3CCCCC3)N2)c1` (stereo not drawn) [Compound 51], the pest or weed control at 200 ppm is 80 to 100% in the assay with Pyricularia oryzae; 80 to 100% in assay [1]; 0 to 49% in the assay with Erysiphe cichoracaerum; 0 to 49% in the assay on Phytophthora infestans; 50 to 79% in the assay with Colletotricum lagenarium; 80 to 100% in the assay on Leptosphaeria nodorum.
As for `O=C1C(SC2CCCCC2)NC(c2cccc(-c3ccccc3OC(F)(F)F)c2)=NN1CC(F)(F)F` (stereo not drawn) [Compound 52], the pest or weed control at 200 ppm in the assay with Pyricularia oryzae fell in the range of 80 to 100%; in assay [1] it was 80 to 100%; in the assay with Erysiphe cichoracaerum, 0 to 49%; in the assay on Phytophthora infestans, 0 to 49%; in the assay with Colletotricum lagenarium it was 0 to 49%; in the assay on Leptosphaeria nodorum, 80 to 100%.
In the case of `COc1ccccc1-c1cccc(C2=NN(CC(F)(F)F)C(=O)C(SC3CCCCC3)N2)c1` (stereo not drawn) [Compound 53], the pest or weed control at 200 ppm in the assay with Pyricularia oryzae is 80 to 100%; in assay [1], 80 to 100%; in the assay with Erysiphe cichoracaerum, 0 to 49%; with Phytophthora infestans it was 0 to 49%; in the assay on Colletotricum lagenarium it was 50 to 79%; in the assay on Leptosphaeria nodorum, 80 to 100%.
